Assay results published in patent US8829028B2, “5-HT4 receptor antagonists for the treatment of heart failure” (Serodus AS, priority 2002, dated 2014).

How the values were obtained:
5-HT4 receptor [1] = target: T1, 5-HT4 receptor (Rattus norvegicus, UniProt Q62758); assay: Antagonism of the serotonin inotropic response by 5-HT4 antagonists in post-MI rat papillary muscle (reversal, curve shift, Schild Kb); type: cell-based
T1 construct: The papillary muscles were mounted in organ baths; from tissue; host or cells: rat posterior left ventricular papillary muscle (post-MI or aortic-banding heart failure)
T1 sequence (Q62758 whole entry): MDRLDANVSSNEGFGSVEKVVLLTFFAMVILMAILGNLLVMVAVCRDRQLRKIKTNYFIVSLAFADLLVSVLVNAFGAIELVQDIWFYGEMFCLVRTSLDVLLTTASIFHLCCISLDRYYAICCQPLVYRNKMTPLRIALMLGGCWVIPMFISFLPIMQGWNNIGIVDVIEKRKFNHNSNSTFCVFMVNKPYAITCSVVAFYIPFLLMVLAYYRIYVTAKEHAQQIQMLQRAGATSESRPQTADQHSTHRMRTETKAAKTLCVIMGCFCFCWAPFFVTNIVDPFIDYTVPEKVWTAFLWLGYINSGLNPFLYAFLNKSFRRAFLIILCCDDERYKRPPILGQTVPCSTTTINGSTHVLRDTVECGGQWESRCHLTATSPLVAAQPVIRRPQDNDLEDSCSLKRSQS
Description: The muscles were field stimulated with alternating polarity at 1 Hz with impulses of 5 msec duration and current about 20% above individual threshold (10-15 mA, determined in each experiment). The isometrically contracting muscles were stretched to the maximum of their length-tension curve. The force was recorded and analysed as previously described (Skomedal et al., 1997, J. Pharmacol. Exp. Ther. 280: 721-729). The muscles were allowed to equilibrate for 90 minutes. […] Averaged contraction-relaxation cycles (CRC) were calculated for different experimental periods, and these cycles were used to determine descriptive parameters like maximal development of force (dF/dt)max, time to peak force (TPF) and time to relaxation to 20% level (TR2O). Relaxation time (RT) was calculated as TR2O-TPF. (dF/dt)max was used as an index of contractility. Inotropic responses induced by agonists were expressed by increase in (dF/dt)max. RT was used as index of relaxation. Lusitropic responses were expressed as reduction in RT. Mechanical response at the end of the equilibrium period was used as the control response.
Agonist was added cumulatively or as a single bolus directly to the organ baths and was completely mixed in the solution within 2-3 seconds. […] The different agonists were added directly to the organ baths in increasing concentrations until supramaximal concentrations of agonist were obtained with respect to maximal inotropic response.
The responses for each concentration of agonist were generally calculated as percent of maximal response. The concentration-response curves constructed from papillary muscle experiment were constructed according to Ariens and Simonis (1964, supra), by estimating centiles (EC10 to EC100) for each single experiment and calculating the corresponding means. This calculation provides mean curves that express the response as fractional response or percent of maximum and display horizontal positioning and the correct mean slope of the curves. The horizontal positioning of the concentration-response curves was expressed as pEC50-values (=−log EC50). Data are expressed as mean±standard error of the mean (SEM) and the number of animals expressed as n. The significance levels of differences were calculated according to Students t-test. P<0.05 is considered statistically significant. The inhibition constants Kb were calculated from the Schild equation, based on the relative shifts of the concentration-response curves for receptor stimulation.

5-HT4 receptor [2] = target: T2, 5-HT4 receptor (Homo sapiens, UniProt Q13639); conditions: Gale et al., 1994; cited from earlier work
T2 sequence (Q13639 whole entry): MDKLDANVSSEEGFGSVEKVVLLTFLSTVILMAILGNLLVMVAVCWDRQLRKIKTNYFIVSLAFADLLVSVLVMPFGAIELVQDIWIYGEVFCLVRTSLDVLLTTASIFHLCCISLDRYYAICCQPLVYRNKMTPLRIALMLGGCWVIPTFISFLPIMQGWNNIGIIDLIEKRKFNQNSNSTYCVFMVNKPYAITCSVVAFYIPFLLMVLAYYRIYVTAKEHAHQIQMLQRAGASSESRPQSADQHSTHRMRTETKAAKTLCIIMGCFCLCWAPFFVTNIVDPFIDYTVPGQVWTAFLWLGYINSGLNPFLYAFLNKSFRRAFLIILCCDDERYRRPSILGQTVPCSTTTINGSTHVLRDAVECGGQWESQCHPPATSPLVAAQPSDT

5-HT4 receptor [3] = target: T2, 5-HT4 receptor; assay: Inotropic response in trabecular muscle from explanted human heart with dilated cardiomyopathy (IBMX present); type: cell-based; design: Trabecular muscles were prepared, mounted in organ baths; from tissue; host or cells: trabecular muscle from explanted human hearts (post-infarct; dilated cardiomyopathy); conditions: 1 μM GR113808 after 10 μM serotonin; IBMX 35 μM
5-HT4 receptor [4] = target: T1, 5-HT4 receptor; assay: 5-HT4 receptor-mediated inotropic response in papillary muscle of CHF rat 6 weeks after aortic banding; type: cell-based; conditions: 1 μM GR113808 after 10 μM serotonin
Description: Trans-aortic constriction (aortic banding) of the ascending aorta was induced in 200 g male Wistar rats under anaesthesia, induced by 63% N2O, 32% O2 and 5% Isoflurane and maintained by 66% N2O, 33% O2 and 1-2% Isoflurane. A right-sided thoracotomi was performed through a 3-4 cm long cutaneous incision, the pericardium was opened and the ascending aorta identified and dissected free of surrounding tissue. A ligature was knit around the ascending aorta and a metal probe with diameter 0.9 mm. The metal probe was then removed. The result was a constriction of the ascending aorta with internal diameter about 0.9 mm. The thorax was then closed with 3-0 silk sutures and the skin closed with Dexon 1 sutures. […]
Papillary muscle was extracted from a CHF rat 6 weeks after aortic banding as described above. osterior left ventricular papillary muscle was prepared, mounted in organ bath, equilibrated and field stimulated at 1 Hz (Sjaastad et al. 2003 supra), and the contraction-relaxation cycles (CRCs) were recorded and analysed as previously described (Skomedal et al. 1997, J. Pharmacol Exp Ther 280: 721-729) (Sjaastad et al., 2003, supra) with respect to maximal developed force (Fmax), maximal development of force (dF/dt)max, time to peak force (TPF), time to relaxation to 20% level (TR20) and relaxation time (RT=TR20-TPF).

5-HT4 receptor [5] = target: T2, 5-HT4 receptor; assay: Inotropic response in trabecular muscle from explanted post-infarct human heart; type: cell-based; design: Trabecular muscles were prepared, mounted in organ baths; from tissue; host or cells: trabecular muscle from explanted human hearts (post-infarct; dilated cardiomyopathy); conditions: 1 μM GR113808 after 10 μM serotonin
Description: The heart was explanted from a patient who had survived a small myocardial infarction and died in hospital from subarachnoidal haemorrhage. Trabecular muscles were prepared, mounted in organ baths, equilibrated and field stimulated at 1 Hz (Skomedal et al., 1997, supra) and the contraction-relaxation cycles (CRCs) were recorded and analysed as previously described (Skomedal et al., 1997, supra) with respect to maximal developed force (Fmax), maximal development of force (dF/dt)max, time to peak force (TPF), time to relaxation to 20% level (TR20) and relaxation time (RT=TR20-TPF).

With `Cn1cc(C(=O)OCC2CCN(CCNS(C)(=O)=O)CC2)c2ccccc21` [GR113808, {1-[2-(methyl-sulphonylamino)ethyl]-4-piperidinyl}methyl 1-methyl-1H-indole-3-carboxylate] the Kb (5-HT4 receptor [1]) was 0.5 nM, the “reversal of the inotropic response evoked by 10 μmol/l serotonin” value (5-HT4 receptor [1]) was “completely reversed” and the “reversal of the serotonin-induced shortening of the contraction-relaxation cycles” value (5-HT4 receptor [1]) was “not completely reversed”. The pKi (5-HT4 receptor [2]) was 9.2-9.7, the “reversal of the positive inotropic response to serotonin” value (“reversal … to serotonin” below) (5-HT4 receptor [3]) was “reversed” and the “reversal … to serotonin” value (5-HT4 receptor [4]) was “reversed”. The “reversal … to serotonin” value (5-HT4 receptor [5]) was “reversed”.
